The numbers were not newly measured in patent US7881871B2, “Method for designing surfaces” (Bio-Layer Pty Limited, priority 2003, dated 2011), which cites them from elsewhere.

Data set [1] relates to monoclonal antibodies (IgG subclasses).
Data set [2] concerns antibodies (Fc fragment).

Like-named read-outs stand apart in the source and are kept apart here.

“Protein G: 30,000 to 35,000 dalton protein isolated from the cell wall of beta-hemolytic Streptococci”: the “affinity for monoclonal antibodies” value is “high affinity” in data set [1] (human IgG1, IgG2, IgG3 and IgG4, mouse IgG1, IgG2a, IgG2b and IgG3, rat IgG2a); “moderate or low affinity” in data set [1] (rat IgG1, IgG2b and IgG2c). The affinity for antibodies result is on record as “low affinity” in data set [2] (chicken antibodies); “high affinity” in data set [2] (human, horse, cow, pig and rabbit antibodies); “moderate affinity” in data set [2] (sheep, goat, hamster, guinea pig, rat and mouse antibodies).

For the substance “Protein A: 42,000 dalton cell-wall-associated protein of S. Aureus with IgG binding activity”, the “affinity for monoclonal antibodies” value is “high affinity” in data set [1] (human IgG1, IgG2, IgG3, mouse IgG2a and IgG2b); “no affinity” in data set [1] (human IgG1, rat IgG1, IgG2a and IgG2b); “moderate or low affinity” in data set [1] (mouse IgG1 and IgG3, rat IgG2c). Besides, the affinity for antibodies result in data set [2] (horse, cow and mouse antibodies) is listed as “moderate affinity”; in data set [2] (human, pig, rabbit and guinea pig antibodies) it was “high affinity”; in data set [2] (sheep, goat, chicken, hamster and rat antibodies) it was “low or no affinity”.
